According to ChEMBL document CHEMBL3885881, “DrugMatrix”:

Species: Rattus norvegicus
Assay: DrugMatrix - Regimen: Daily Repeat
Format: toxicity, organism-based, Sprague-Dawley
Design: regimen Daily Repeat, gender Male, age 6-8 weeks
Conditions: in vivo, po, route oral GAVAGE, […]; for ABSOLUTE BASOPHIL / ABSOLUTE EOSINOPHIL / ABSOLUTE LYMPHOCYTE / ABSOLUTE MONOCYTE / ABSOLUTE SEGMENTED NEUTROPHIL / BASOPHIL / EOSINOPHIL / ERYTHROCYTE COUNT / HEMATOCRIT / HEMOGLOBIN / LEUKOCYTE COUNT / LYMPHOCYTE / MEAN CORPUSCULAR HEMOGLOBIN / MEAN CORPUSCULAR HEMOGLOBIN CONCENTRATION / MEAN CORPUSCULAR VOLUME / MONOCYTE / NEUTROPHIL / NUCLEATED RED BLOOD CELLS / PLATELET COUNT: tissue Blood; for ALANINE AMINOTRANSFERASE / ALBUMIN / ALKALINE PHOSPHATASE / ASPARTATE AMINOTRANSFERASE / BLOOD UREA NITROGEN / CARBON DIOXIDE / CHLORIDE / CHOLESTEROL / CREATINE PHOSPHOKINASE / CREATININE / GLUCOSE / LACTATE DEHYDROGENASE / LIPASE / PHOSPHORUS / POTASSIUM / SODIUM / TOTAL BILIRUBIN / TOTAL PROTEIN / URIC ACID: tissue Plasma
[1] = 0 mg/kg, 72 h, dose level Control, time 3 day
[2] = 0 mg/kg, 120 h, dose level Control, time 5 day
[3] = 100 mg/kg, 72 h, dose level Low, time 3 day

CCn1cc(C(=O)O)c(=O)c2cc(F)c(N3CCNCC3)nc21 [ENOXACIN]
ABSOLUTE BASOPHIL [1]: 0 CELLS/uL | ABSOLUTE EOSINOPHIL [1]: 104.17 CELLS/uL | ABSOLUTE LYMPHOCYTE [1]: 14547 CELLS/uL | ABSOLUTE MONOCYTE [1]: 292 CELLS/uL | ABSOLUTE SEGMENTED NEUTROPHIL [1]: 1640.17 CELLS/uL | BASOPHIL [1]: 0% | EOSINOPHIL [1]: 0.67% | ERYTHROCYTE COUNT [1]: 5.35 x10E6/uL | HEMATOCRIT [1]: 33.67% | HEMOGLOBIN [1]: 13.38 G/DL | LEUKOCYTE COUNT [1]: 16.58 x10E3/uL | LYMPHOCYTE [1]: 87.5% | MEAN CORPUSCULAR HEMOGLOBIN [1]: 25.05 pg | MEAN CORPUSCULAR HEMOGLOBIN CONCENTRATION [1]: 39.78 G/DL | MEAN CORPUSCULAR VOLUME [1]: 62.97 fL | MONOCYTE [1]: 1.83% | NEUTROPHIL [1]: 10% | NUCLEATED RED BLOOD CELLS [1]: 0 /100WBC | PLATELET COUNT [1]: 1274.5 x10E3/uL | ALANINE AMINOTRANSFERASE [1]: 76.83 u/L | ALBUMIN [1]: 3.97 G/DL | ALKALINE PHOSPHATASE [1]: 347 u/L | ASPARTATE AMINOTRANSFERASE [1]: 97.17 u/L | BLOOD UREA NITROGEN [1]: 14.33 mg/dL | CARBON DIOXIDE [1]: 25.5 mmol/L | CHLORIDE [1]: 100.33 MEQ/L | CHOLESTEROL [1]: 68.67 mg/dL | CREATINE PHOSPHOKINASE [1]: 659.17 u/L | CREATININE [1]: 0.32 mg/dL | GLUCOSE [1]: 160.67 mg/dL | LACTATE DEHYDROGENASE [1]: 271.5 u/L | LIPASE [1]: 11.67 u/L | PHOSPHORUS [1]: 10.65 mg/dL | POTASSIUM [1]: 5.95 MEQ/L | SODIUM [1]: 139.65 MEQ/L | TOTAL BILIRUBIN [1]: 0.2 mg/dL | TOTAL PROTEIN [1]: 5.72 G/DL | URIC ACID [1]: 1.37 mg/dL | ABSOLUTE BASOPHIL [2]: 0 CELLS/uL | ABSOLUTE EOSINOPHIL [2]: 331.5 CELLS/uL | ABSOLUTE LYMPHOCYTE [2]: 15021.67 CELLS/uL | ABSOLUTE MONOCYTE [2]: 376.5 CELLS/uL | ABSOLUTE SEGMENTED NEUTROPHIL [2]: 3070.33 CELLS/uL | BASOPHIL [2]: 0% | EOSINOPHIL [2]: 1.83% | ERYTHROCYTE COUNT [2]: 5.24 x10E6/uL | HEMATOCRIT [2]: 33.22% | HEMOGLOBIN [2]: 13.2 G/DL | LEUKOCYTE COUNT [2]: 18.8 x10E3/uL | LYMPHOCYTE [2]: 79.67% | MEAN CORPUSCULAR HEMOGLOBIN [2]: 25.17 pg | MEAN CORPUSCULAR HEMOGLOBIN CONCENTRATION [2]: 39.73 G/DL | MEAN CORPUSCULAR VOLUME [2]: 63.38 fL | MONOCYTE [2]: 2% | NEUTROPHIL [2]: 16.5% | NUCLEATED RED BLOOD CELLS [2]: 0 /100WBC | PLATELET COUNT [2]: 1142.67 x10E3/uL | ALANINE AMINOTRANSFERASE [2]: 52.5 u/L | ALBUMIN [2]: 3.9 G/DL | ALKALINE PHOSPHATASE [2]: 284.5 u/L | ASPARTATE AMINOTRANSFERASE [2]: 81.33 u/L | BLOOD UREA NITROGEN [2]: 16 mg/dL | CARBON DIOXIDE [2]: 25.33 mmol/L | CHLORIDE [2]: 99.5 MEQ/L | CHOLESTEROL [2]: 74.83 mg/dL | CREATINE PHOSPHOKINASE [2]: 448.33 u/L | CREATININE [2]: 0.37 mg/dL | GLUCOSE [2]: 164.17 mg/dL | LACTATE DEHYDROGENASE [2]: 290.67 u/L | LIPASE [2]: 6.83 u/L | PHOSPHORUS [2]: 11.5 mg/dL | POTASSIUM [2]: 6.28 MEQ/L | SODIUM [2]: 139.5 MEQ/L | TOTAL BILIRUBIN [2]: 0.13 mg/dL | TOTAL PROTEIN [2]: 5.55 G/DL | URIC ACID [2]: 1.12 mg/dL | ABSOLUTE BASOPHIL [3]: 0 CELLS/uL | ABSOLUTE EOSINOPHIL [3]: 0 CELLS/uL | ABSOLUTE LYMPHOCYTE [3]: 5797 CELLS/uL | ABSOLUTE MONOCYTE [3]: 86.67 CELLS/uL | ABSOLUTE SEGMENTED NEUTROPHIL [3]: 549.67 CELLS/uL | BASOPHIL [3]: 0% | EOSINOPHIL [3]: 0% | ERYTHROCYTE COUNT [3]: 5.41 x10E6/uL | HEMATOCRIT [3]: 34.57% | HEMOGLOBIN [3]: 13.57 G/DL | LEUKOCYTE COUNT [3]: 6.43 x10E3/uL | LYMPHOCYTE [3]: 90% | MEAN CORPUSCULAR HEMOGLOBIN [3]: 25.13 pg | MEAN CORPUSCULAR HEMOGLOBIN CONCENTRATION [3]: 39.27 G/DL | MEAN CORPUSCULAR VOLUME [3]: 64.03 fL | MONOCYTE [3]: 1.33% | NEUTROPHIL [3]: 8.67% | NUCLEATED RED BLOOD CELLS [3]: 0 /100WBC | PLATELET COUNT [3]: 1201 x10E3/uL | ALANINE AMINOTRANSFERASE [3]: 52.33 u/L | ALBUMIN [3]: 3.9 G/DL | ALKALINE PHOSPHATASE [3]: 346.33 u/L | ASPARTATE AMINOTRANSFERASE [3]: 78 u/L | BLOOD UREA NITROGEN [3]: 14 mg/dL | CARBON DIOXIDE [3]: 24.67 mmol/L | CHLORIDE [3]: 103 MEQ/L | CHOLESTEROL [3]: 70.33 mg/dL | CREATINE PHOSPHOKINASE [3]: 221.67 u/L | CREATININE [3]: 0.12 mg/dL | GLUCOSE [3]: 172.67 mg/dL | LACTATE DEHYDROGENASE [3]: 139.33 u/L | LIPASE [3]: 10 u/L | PHOSPHORUS [3]: 11.1 mg/dL | POTASSIUM [3]: 5.8 MEQ/L | SODIUM [3]: 142.37 MEQ/L | TOTAL BILIRUBIN [3]: 0.13 mg/dL | TOTAL PROTEIN [3]: 5.57 G/DL | URIC ACID [3]: 1.63 mg/dL
